The values that follow come from patent EP3828160A1, “TREPROSTINIL DERIVATIVE COMPOUNDS AND METHODS OF USING SAME” (Corsair Pharma, Inc., priority 2014, dated 2016).

Holding throughout (format): in vitro ADME
The nature of data set [1]: Human liver microsomal stability assay (Test 1). As to conditions: liver microsomes, 0.5 uM test compound, 37°C, up to 45 minutes, 0.5 mg microsomal protein, NADPH generating system, pH 7.4, read-out: Test 1 T1/2. How it is done:
(§1) Four assays on compounds were carried out by the following methods with the results shown in Table I. • (Test 1) Human liver microsomal stability assay was conducted by incubating 0.5 uM test compounds at 37°C for up to 45 minutes in 50 mM of potassium phosphate buffer (pH 7.4) containing 0.5 mg of microsomal protein and 50 µL of NADPH generating system (7.8 mg of glucose 6-phosphate, 1.7 mg of NADPH and 6 U of glucose 6-phosphate dehydrogenase per mL in 2% w/v of sodium bicarbonate). At 0, 5, 15, 30 and 45 min., an aliquot was taken, quenched with internal standard containing stop solution. No co-factor controls at 45 minutes were also prepared. After incubation, the samples were analyzed by LC-MS/MS. Peak area ratios of analyte to internal standard were used to calculate the intrinsic clearance. The intrinsic clearance (CLint) was determined from the first order elimination constant by non-linear regression. Formation of the active drug Compound A over the time course was also monitored by LC-MS/MS analysis. • (Test 2) Human plasma stability assay was conducted by incubating 0.5 uM test compounds at 37°C for up to 120 minutes in heparinated human plasma. At 0, 5, 15, 30, 60 and 120 […] min., an aliquot was taken, quenched with internal standard containing stop solution. After incubation, the samples were analyzed by LC-MS/MS. Peak area ratios of analyte to internal standard were used to calculate the half-life. Formation of the active drug Compound A over the time course was also monitored by LC-MS/MS analysis. • (Test 3) Human skin homogenate stability assay was conducted in a similar way as the human liver microsomal stability assay, by incubating 0.5 uM test compounds at 37°C for up to 45 minutes in 50 mM of potassium phosphate buffer (pH 7.4) containing 0.5 mg of human skin homogenate protein and 50 µL of NADPH generating system (7.8 mg of glucose 6-phosphate, 1.7 mg of NADPH and 6 U of glucose 6-phosphate dehydrogenase per mL in 2% w/v of sodium bicarbonate). At 0, 5, 15, 30 and 45 min., an aliquot was taken, quenched with internal standard containing stop solution. No co-factor controls at 45 minutes were also prepared. After incubation, the samples were analyzed by LC-MS/MS. Peak area ratios of analyte to internal standard were used to calculate the intrinsic clearance. The intrinsic clearance (CLint) was determined from the first order elimination constant by non-linear regression. Formation of the active drug Compound A over the time course was also monitored by LC-MS/MS analysis. • (Test 4) Human hepatocyte stability assay was conducted by incubating 0.5 uM test compound at 37°C for up to 240 minutes. Cryopreserved human hepatocytes were obtained from Celsis IVT (Baltimore, Maryland). Cells were thawed according to vendor's instructions and were suspended in William's Medium E to 0.5 million cells/mL. Test compounds were spiked into the cell suspension to initiate the reactions. At 0, 10,30,60, 120 and 240 min., an aliquot was taken, quenched with internal standard containing stop solution. After incubation, the samples were analyzed by LC-MS/MS. Peak area ratios of analyte to internal standard were used to calculate the intrinsic clearance. The intrinsic clearance (CLint) was determined from the first order elimination constant by non-linear regression. Formation of the active drug Compound A over the time course was also monitored by LC-MS/MS analysis.
A general note: Liver microsomes are a subcellular fraction often used to study metabolism.

Data set [2] is described as follows: Human plasma stability assay (Test 2). As to conditions: 0.5 uM test compound, 37°C, up to 120 minutes, heparinated human plasma, read-out: Test 2 T1/2. As to the method:
as §1

Data set [3] in a line: Human skin homogenate stability assay (Test 3). The following applies: 0.5 uM test compound, 37°C, up to 45 minutes, 0.5 mg human skin homogenate protein, NADPH generating system, pH 7.4, read-out: Test 3 T1/2. How it is done:
as §1

For `CCCCCC(O)CCC1C(O)CC2Cc3c(cccc3OCC(=O)OCC3CC3)CC21` (stereo not shown) [Compound 1, [2-Hydroxy-1-(3-hydroxy-octyl)-2,3,3a,4,9,9a-hexahydro-1H-cyclopenta[b]naphthalen-5-yloxy]-acetic acid cyclopropylmethyl ester], the half-life at 0.5 uM in data set [1] and in data set [2] was under 15 min in each case.

Take `CCCCCC(O)CCC1C(O)CC2Cc3c(cccc3OCC(=O)OCCCF)CC21` (stereo not shown) [Compound 4, [2-Hydroxy-1-(3-hydroxy-octyl)-2,3,3a,4,9,9a-hexahydro-1H-cyclopenta[b]naphthalen-5-yloxy]-acetic acid 3-fluoro-propyl ester]: the half-life at 0.5 uM in data set [1] and in data set [2] was under 15 min in each case.

Regarding `CCCCCC(O)CCC1C(O)CC2Cc3c(cccc3OCC(=O)OC3CCOC3)CC21` (stereo not shown) [Compound 5, [2-Hydroxy-1-(3-hydroxy-octyl)-2,3,3a,4,9,9a-hexahydro-1H-cyclopenta[b]naphthalen-5-yloxy]-acetic acid tetrahydro-furan-3-yl ester], the half-life at 0.5 uM in data set [1] and in data set [2] was under 15 min each time.

`CCCCCC(O)CCC1C(O)CC2Cc3c(cccc3OCC(=O)OC(C)C(=O)OC)CC21` (stereo not shown) [Compound 6, 2-{2-[2-Hydroxy-1-(3-hydroxy-octyl)-2,3,3a,4,9,9a-hexahydro-1H-cyclopenta[b]naphthalen-5-yloxy]-acetoxy}-propionic acid methyl ester]: the half-life at 0.5 uM in data set [1] and in data set [2] was under 15 min each time.

On to `CCCCCC(O)CCC1C(O)CC2Cc3c(cccc3OCC(=O)NCCN)CC21` (stereo not shown) [Compound 8, N-(2-Amino-ethyl)-2-[2-hydroxy-1-(3-hydroxy-octyl)-2,3,3a,4,9,9a-hexahydro-1H-cyclopenta[b]naphthalen-5-yloxy]-acetamide], for which, in data set [1], the half-life at 0.5 uM was in the range of 31 to 60 min.

Regarding `CCCCCC(O)CCC1C(O)CC2Cc3c(cccc3OCC(=O)OCCO)CC21` (stereo not shown) [Compound 9, [2-Hydroxy-1-(3-hydroxy-octyl)-2,3,3a,4,9,9a-hexahydro-1H-cyclopenta[b]naphthalen-5-yloxy]-acetic acid 2-hydroxy-ethyl ester], the half-life at 0.5 uM in data set [1] is under 15 min.

For `CCCCCC(O)CCC1C(O)CC2Cc3c(cccc3OCC(=O)OCCOC)CC21` (stereo not shown) [Compound 10, [2-Hydroxy-1-(3-hydroxy-octyl)-2,3,3a,4,9,9a-hexahydro-1H-cyclopenta[b]naphthalen-5-yloxy]-acetic acid 2-methoxy-ethyl ester], the half-life at 0.5 uM in data set [1] is under 15 min.

For the molecule `CCCCCC(O)CCC1C(O)CC2Cc3c(cccc3OCC(=O)NCCCO)CC21` (stereo not shown) [Compound 11, 2-[2-Hydroxy-1-(3-hydroxy-octyl)-2,3,3a,4,9,9a-hexahydro-1H-cyclopenta[b]naphthalen-5-yloxy]-N-(3-hydroxy-propyl)-acetamide], the half-life at 0.5 uM in data set [1] was under 15 min; in data set [2] it was over 60 min.

In the case of `CCCCCC(O)CCC1C(O)CC2Cc3c(cccc3OCC(=O)NCC(=O)OC)CC21` (stereo not shown) [Compound 12, {2-[2-Hydroxy-1-(3-hydroxy-octyl)-2,3,3a,4,9,9a-hexahydro-1H-cyclopenta[b]naphthalen-5-yloxy]-acetylamino}-acetic acid methyl ester], the half-life at 0.5 uM in data set [1] was under 15 min; in data set [2] it was over 60 min.

As for `CCCCCC(O)CCC1C(O)CC2Cc3c(cccc3OCC(=O)OC)CC21` (stereo not shown) [Compound 15, [2-Hydroxy-1-(3-hydroxy-octyl)-2,3,3a,4,9,9a-hexahydro-1H-cyclopenta[b]naphthalen-5-yloxy]-acetic acid methyl ester], the half-life at 0.5 uM in data set [1], in data set [2] and in data set [3] was under 15 min each time.

For the molecule `CCCCCC(O)CCC1C(O)CC2Cc3c(cccc3OCC(=O)OCC(C)(C)C)CC21` (stereo not shown) [Compound 16, [2-Hydroxy-1-(3-hydroxy-octyl)-2,3,3a,4,9,9a-hexahydro-1H-cyclopenta[b]naphthalen-5-yloxy]-acetic acid 2,2-dimethyl-propyl ester], the values for the half-life at 0.5 uM in data set [1], in data set [2] and in data set [3] were under 15 min, 15 to 30 min and 15 to 30 min, respectively.

In the case of `CCCCCC(O)CCC1C(O)CC2Cc3c(cccc3OCC(=O)OC(C)C(C)C)CC21` (stereo not shown) [Compound 17, [2-Hydroxy-1-(3-hydroxy-octyl)-2,3,3a,4,9,9a-hexahydro-1H-cyclopenta[b]naphthalen-5-yloxy]-acetic acid 1,2-dimethyl-propyl ester], the half-life at 0.5 uM in data set [1] was under 15 min; in data set [2] it was 31 to 60 min; in data set [3], 15 to 30 min.

Turning to `CCCCCC(O)CCC1C(O)CC2Cc3c(cccc3OCC(=O)OC(C)C(C)(C)C)CC21` (stereo not shown) [Compound 18, [2-Hydroxy-1-(3-hydroxy-octyl)-2,3,3a,4,9,9a-hexahydro-1H-cyclopenta[b]naphthalen-5-yloxy]-acetic acid 1,2,2-trimethyl-propyl ester], the half-life at 0.5 uM was under 15 min in data set [1], over 60 min in data set [2] and over 60 min in data set [3].

As for `CCCCCC(O)CCC1C(O)CC2Cc3c(cccc3OCC(=O)OC3CC4CCC3C4)CC21` (stereo not shown) [Compound 19, [2-Hydroxy-1-(3-hydroxy-octyl)-2,3,3a,4,9,9a-hexahydro-1H-cyclopenta[b]naphthalen-5-yloxy]-acetic acid bicyclo[2.2.1]hept-2-yl ester], the half-life at 0.5 uM in data set [1] was under 15 min; in data set [2] it was 31 to 60 min; in data set [3], 15 to 30 min.

For `CCCCCC(O)CCC1C(O)CC2Cc3c(cccc3OCC(=O)NCC(F)(F)C(F)(F)F)CC21` (stereo not shown) [Compound 21, 2-[2-Hydroxy-1-(3-hydroxy-octyl)-2,3,3a,4,9,9a-hexahydro-1H-cyclopenta[b]naphthalen-5-yloxy]-N-(2,2,3,3,3-pentafluoro-propyl)-acetamide], the half-life at 0.5 uM in data set [1] was under 15 min; in data set [2], over 60 min.

As for `CCCCCC(O)CCC1C(OC(=O)CC(C)C)CC2Cc3c(cccc3OCC(=O)OC)CC21` (stereo not shown) [Compound 23, 3-Methyl-butyric acid 1-(3-hydroxy-octyl)-5-methoxycarbonylmethoxy-2,3,3a,4,9,9a-hexahydro-1H-cyclopenta[b]naphthalen-2-yl ester], the half-life at 0.5 uM in data set [1] is under 15 min; in data set [2], over 60 min.

`CCCCCC(O)CCC1C(OC(=O)C2CC2)CC2Cc3c(cccc3OCC(=O)OC)CC21` (stereo not shown) [Compound 24, Cyclopropanecarboxylic acid 1-(3-hydroxy-octyl)-5-methoxycarbonylmethoxy-2,3,3a,4,9,9a-hexahydro-1H-cyclopenta[b]naphthalen-2-yl ester]: the half-life at 0.5 uM was under 15 min in data set [1] and over 60 min in data set [2].

With `CCCCCC(O)CCC1C(OC(=O)CCC(=O)OCC)CC2Cc3c(cccc3OCC(=O)OC)CC21` (stereo not shown) [Compound 27, Succinic acid ethyl ester 1-(3-hydroxy-octyl)-5-methoxycarbonylmethoxy-2,3,3a,4,9,9a-hexahydro-1H-cyclopenta[b]naphthalen-2-yl ester], the half-life at 0.5 uM is under 15 min in data set [1] and over 60 min in data set [2].

Regarding `CCCCCC(O)CCC1C(O)CC2Cc3c(cccc3OCC(=O)OC(C)(C)C)CC21` (stereo not shown) [Compound 28, [2-Hydroxy-1-(3-hydroxy-octyl)-2,3,3a,4,9,9a-hexahydro-1H-cyclopenta[b]naphthalen-5-yloxy]-acetic acid tert-butyl ester], the half-life at 0.5 uM is under 15 min in data set [1] and 15 to 30 min in data set [2].
